Measured values reported in patent US20100190849A1, “Novel Clerodanes and Methods for Repelling Arthropods” (priority 2006, published 2010).
Marks after values point to notes of the source that are not given here.

Assays:
[1] = test system: hybrid (S. invicta×S. richteri); assay: Two-choice digging bioassay, head-to-head against octanoic acid; format: in vivo; settings: 25.00 ppm; all hybrid colonies; FIG. 4
Procedure: (§1) The repellency of the two terpenoids, callicarpenal and intermedeol, against workers of red imported fire ants, Solenopsis invicta Buren, black imported fire ants, Solenopsis rickeri Forel, and a hybrid of these two species was evaluated using multiple-choice digging bioassays (Tables 9 & 10). […] Callicarpenal and intermedeol were compared with octanoic acid, a known fire ant repellant, at the 25.00 ppm level using two-choice digging bioassays (FIGS. 3 and 4).
(§2) Head-to-head comparison on repellency of callicarpenal and intermedeol against octanoic acid: The bioassay apparatus was similar as described above, except a smaller Petri dish (8.7×2.3 cm) was used and only two choices were presented: one was sand treated with callicarpenal or intermedeol and the other with octanoic acid. Two choices were opposite each other across the center of the Petri dish and each was 3.0 cm away from the center. All compounds were tested at a 25.00 ppm level. Sand preparation was similar as described above. Ants from the same colonies as above were used in this experiment. There were five replications for each pair of comparisons. A paired t-test (critical P-value=0.05) was used to compare the mean amount of sand removed between two tubes.

[2] = test system: S. richteri; assay: as above; format: in vivo, Solenopsis richteri; settings: 25.00 ppm; both S. richteri colonies; FIGS. 3 and 4
Procedure: as §1, §2

[3] = test system: red imported fire ants, Solenopsis invicta Buren; assay: Multiple-choice digging bioassay, fire ant workers; format: in vivo
Procedure: as §1
(§3) Ants: Two Solenopsis invicta colonies were collected in Sharkey County, Mississippi, and two Solenopsis richteri colonies were collected in Granada County, Mississippi. Two colonies of the hybrid (S. invicta×S. richteri) colony were collected in Sunflower County, Mississippi. Fire ant mounds were shoveled and placed in 19-L plastic buckets. The inside wall of the bucket was then coated with baby powder (Cumberland Swan Holdings, Inc., Smyrna, Tenn.) to prevent ant escape. Following the water-drip method developed by Bank et al. (Banks, W. A., et al., Techniques for collecting, rearing, and handling imported fire ants, USDA SEA AATS-S-21 (1981)), ants were separated and then placed in a 44.5×60.0×13.0 cm plastic tray with inside walls coated with Fluon® (Ag Fluoropolymers, Chadds Ford, Pa.). Distilled water and 15% (w/v) sucrose water solution in separated test tubes which were plugged with cotton balls were placed in the trays. Heliocoverpa zea (Boddie) and tobacco budworm, Heliothis virescens (Fabricius) pupae were used as food sources. Inside each tray were one to three 14.0×2.0 cm Petri dishes with 1.0 cm of hardener dental plaster (Castone®; Dentsply International Inc. York, Pa.) on the bottom. Also, in the center of the Petri dish was a 5.0-cm diameter brood chamber. Two 8-mm access holes were made on the wall of the petri dish above the dental plaster. The Petri dish lid was painted black (1302 Gloss Black Spray Enamel, Louisville, Ky.)to block the light. All colonies were maintained at 22-25° C.
(§4) Fire ant workers dug and removed sand from the tube through the entry hole. The differences in the amount of removed sand among treated and control tubes were used to evaluate chemical repellency. Four 2 ml centrifuge tubes were mounted under a 14.0×2.3 cm Petri dish using glue (Arrow Fastener Co., inc., Saddle Brook, N.J.). Tubes were 5.0 cm away from the center of the Petri dish and at equal distance from each other. A 3-mm diameter access hole was drilled for each centrifuge tube, which went through the bottom of the Petri dish and the cap of the tube. The inner side of the Petri dish was coated with Fluon. Three concentrations of a test compound and one control were set up in each apparatus. Six concentrations, including […], 6.25, 12.50, and 25.00 ppm, were tested in two separated bioassays for each species and hybrid; however three more concentrations of callicarpenal, 50.00, 100.00, and […], were tested for S. invicta. Sand (Premium Play Sand, Plassein International, Longview, Tex.) was first sieved through a ™35 U.S.A. standard testing sieve (Thomas Scientific, Swedesboro, N.J.) and then washed with distilled water and dried at 350° C. for 12 h. A 3 ml dichloromethane solution of callicarpenal or intermedeol was mixed with 30 g sand in an aluminum pan. The sand was stirred every 2 min to facilitate the evaporation of the solvent under a fume hood. After dichloromethane evaporated (5 minutes), 1.92 ml distilled water was added and mixed with sand. Sand in the control tube was treated only with dichloromethane. In each tube a mean (±SD) 2.78 g (±0.06 g) wet sand was added. There was no open space inside the tube. Locations of each concentration were randomized. Fifty fire ant workers were introduced into the center of the Petri Dish. The experiment was conducted at 22±0.8° C. (mean±SD) temperature and 45.4%±11.87% relative humidity. After 24 h, sand in each vial was collected, dried at 150° C. for at least 4 hour, and weighed. […]

[4] = test system: black imported fire ants, Solenopsis richteri Forel; assay: Multiple-choice digging bioassay, fire ant workers; format: in vivo
Procedure: as §1, §3, §4

[5] = test system: hybrid (S. invicta×S. richteri); assay: Multiple-choice digging bioassay, fire ant workers; format: in vivo
Procedure: as §1, §3, §4

[6] = test system: S. invicta; assay: Two-choice digging bioassay, head-to-head against octanoic acid; format: in vivo, Solenopsis invicta; settings: 25.00 ppm; both S. invicta colonies; FIGS. 3 and 4
Procedure: as §1, §2

## C=C(C)C1CCC2(C)CCCC(C)(O)C2C1 [intermedeol, (4S,5S,7R,10S)-eudesm-11-en-4-ol]
[1]
  repellency compared with octanoic acid (in words): significantly greater repellency than octanoic acid
[2]
  repellency compared with octanoic acid (in words): significantly greater repellency than octanoic acid
[3]; S. invicta colony 1, Exp. 15, 0.75 ppm
  Sand removed (SE), mean weight of sand removed by ants 24 h after release: 0.56 (0.06) g
[3]; S. invicta colony 1, Exp. 15, 1.50 ppm
  Sand removed (SE), mean weight of sand removed by ants 24 h after release: 0.36 (0.09)* g
[3]; S. invicta colony 1, Exp. 15, 3.15 ppm
  Sand removed (SE), mean weight of sand removed by ants 24 h after release: 0.20 (0.06)* g
[3]; S. invicta colony 1, Exp. 16, 6.25 ppm
  Sand removed (SE), mean weight of sand removed by ants 24 h after release: 0.66 (0.15)* g
[3]; S. invicta colony 1, Exp. 16, 12.50 ppm
  Sand removed (SE), mean weight of sand removed by ants 24 h after release: 0.25 (0.13)* g
[3]; S. invicta colony 1, Exp. 16, 25.00 ppm
  Sand removed (SE), mean weight of sand removed by ants 24 h after release: 0.18 (0.09)* g
[3]; S. invicta colony 2, Exp. 17, 0.75 ppm
  Sand removed (SE), mean weight of sand removed by ants 24 h after release: 0.44 (0.10)* g
[3]; S. invicta colony 2, Exp. 17, 1.50 ppm
  Sand removed (SE), mean weight of sand removed by ants 24 h after release: 0.35 (0.08)* g
[3]; S. invicta colony 2, Exp. 17, 3.15 ppm
  Sand removed (SE), mean weight of sand removed by ants 24 h after release: 0.35 (0.12)* g
[3]; S. invicta colony 2, Exp. 18, 6.25 ppm
  Sand removed (SE), mean weight of sand removed by ants 24 h after release: 0.17 (0.08)* g
[3]; S. invicta colony 2, Exp. 18, 12.50 ppm
  Sand removed (SE), mean weight of sand removed by ants 24 h after release: 0.02 (0.01)* g
[3]; S. invicta colony 2, Exp. 18, 25.00 ppm
  Sand removed (SE), mean weight of sand removed by ants 24 h after release: 0.04 (0.01)* g
[4]; S. richteri colony 1, Exp. 19, 0.75 ppm
  Sand removed (SE), mean weight of sand removed by ants 24 h after release: 0.10 (0.06) g
[4]; S. richteri colony 1, Exp. 19, 1.50 ppm
  Sand removed (SE), mean weight of sand removed by ants 24 h after release: 0.46 (0.18) g
[4]; S. richteri colony 1, Exp. 19, 3.15 ppm
  Sand removed (SE), mean weight of sand removed by ants 24 h after release: 0.24 (0.11) g
[4]; S. richteri colony 1, Exp. 20, 6.25 ppm
  Sand removed (SE), mean weight of sand removed by ants 24 h after release: 0.16 (0.10)* g
[4]; S. richteri colony 1, Exp. 20, 12.50 ppm
  Sand removed (SE), mean weight of sand removed by ants 24 h after release: 0.07 (0.04)* g
[4]; S. richteri colony 1, Exp. 20, 25.00 ppm
  Sand removed (SE), mean weight of sand removed by ants 24 h after release: 0.04 (0.01)* g
[4]; S. richteri colony 2, Exp. 21, 0.75 ppm
  Sand removed (SE), mean weight of sand removed by ants 24 h after release: 0.16 (0.12) g
[4]; S. richteri colony 2, Exp. 21, 1.50 ppm
  Sand removed (SE), mean weight of sand removed by ants 24 h after release: 0.26 (0.17) g
[4]; S. richteri colony 2, Exp. 21, 3.15 ppm
  Sand removed (SE), mean weight of sand removed by ants 24 h after release: 0.17 (0.16) g
[4]; S. richteri colony 2, Exp. 22, 6.25 ppm
  Sand removed (SE), mean weight of sand removed by ants 24 h after release: 0.02 (0.01)* g
[4]; S. richteri colony 2, Exp. 22, 12.50 ppm
  Sand removed (SE), mean weight of sand removed by ants 24 h after release: 0.14 (0.07)* g
[4]; S. richteri colony 2, Exp. 22, 25.00 ppm
  Sand removed (SE), mean weight of sand removed by ants 24 h after release: 0.02 (0.02)* g
[5]; Hybrid colony 1, Exp. 23, 0.75 ppm
  Sand removed (SE), mean weight of sand removed by ants 24 h after release: 0.43 (0.15) g
[5]; Hybrid colony 1, Exp. 23, 1.50 ppm
  Sand removed (SE), mean weight of sand removed by ants 24 h after release: 0.10 (0.03)* g
[5]; Hybrid colony 1, Exp. 23, 3.15 ppm
  Sand removed (SE), mean weight of sand removed by ants 24 h after release: 0.10 (0.03)* g
[5]; Hybrid colony 1, Exp. 24, 6.25 ppm
  Sand removed (SE), mean weight of sand removed by ants 24 h after release: 0.45 (0.08)* g
[5]; Hybrid colony 1, Exp. 24, 12.50 ppm
  Sand removed (SE), mean weight of sand removed by ants 24 h after release: 0.37 (0.04)* g
[5]; Hybrid colony 1, Exp. 24, 25.00 ppm
  Sand removed (SE), mean weight of sand removed by ants 24 h after release: 0.20 (0.09)* g
[5]; Hybrid colony 2, Exp. 25, 0.75 ppm
  Sand removed (SE), mean weight of sand removed by ants 24 h after release: 0.34 (0.14) g
[5]; Hybrid colony 2, Exp. 25, 1.50 ppm
  Sand removed (SE), mean weight of sand removed by ants 24 h after release: 0.25 (0.10) g
[5]; Hybrid colony 2, Exp. 25, 3.15 ppm
  Sand removed (SE), mean weight of sand removed by ants 24 h after release: 0.28 (0.09) g
[5]; Hybrid colony 2, Exp. 26, 6.25 ppm
  Sand removed (SE), mean weight of sand removed by ants 24 h after release: 0.20 (0.08)* g
[5]; Hybrid colony 2, Exp. 26, 12.50 ppm
  Sand removed (SE), mean weight of sand removed by ants 24 h after release: 0.10 (0.04)* g
[5]; Hybrid colony 2, Exp. 26, 25.00 ppm
  Sand removed (SE), mean weight of sand removed by ants 24 h after release: 0.04 (0.01)* g
[6]
  repellency compared with octanoic acid (in words): significantly greater repellency than octanoic acid
